Data published in patent US20230151034A1 (COCRYSTAL PHARMA, INC., priority 2020, published 2023).

Each compound was assayed against SARS2 protease (Severe acute respiratory syndrome coronavirus 2, UniProt P0DTD1) (assay: SARS-CoV-2 protease inhibition assay (SARS2 FRET protease assay)). Conditions: Table E; SARS-CoV-2 protease inhibition; read-out: IC50.
Format: biochemical
Experimental: Viral protease assays: The antiviral activities of inhibitors were determined by FRET (Fluorescence Resonance Energy Transfer) assay. Purified viral protease was incubated with the protease substrate peptide (Edans-DFHLQ/GP-Dabcyl) and inhibitor, and IC50 values were subsequently determined by the fluorescence signals.
The SARS2 FRET protease assay was performed in 20 mM HEPES-Na pH 7, 120 mM NaCl, 0.4 mM EDTA, 0.01% Triton, 5% glycerol, and 4 mM DTT. A self-quenching peptide substrate 5-FAM-TSA VLQ SGF RKK (5TAMRA)-NH2 was custom synthesized by Anaspec. Compounds were diluted in 3-fold serial dilutions to final concentrations of 20 μM to 1.0 nM. SARS2 protease was added to a final concentration of 25 nM, depending on the enzyme activity level, and the peptide substrate was added to a final concentration of 1.3 μM. The assay was incubated 30 minutes at 30° C. and read in a Perkin Elmer Envision with excitation at 473 nm and emission measurement at 519 nm.
Work on `CCCCCCCC1CC/C=C/CC(C(=O)NC)C[C@@H](C(=O)N(C)OC)NC(=O)C(CC(C)C)NC(=O)O1` (single isomer, unassigned) [Compound B32] yielded an IC50 of over 200 µM.
`CCCCCCCC1CC/C=C/CC(C(=O)NC)C[C@@H](C(=O)N(C)OC)NC(=O)C(CC(C)C)NC(=O)O1` (single isomer, unassigned) [Compound B33] showed an IC50 of over 200 µM.
In the case of `CCCCCCCC1CC/C=C/CC(C(=O)NC)C[C@@H](C(=O)N(C)OC)NC(=O)C(CC(C)C)NC(=O)O1` (single isomer, unassigned) [Compound B34], the IC50 is reported as over 200 µM.
Work on `CCCCCCCC1CC/C=C/CC(C(=O)NC)C[C@@H](C(=O)N(C)OC)NC(=O)C(CC(C)C)NC(=O)O1` (single isomer, unassigned) [Compound B35] yielded an IC50 of over 200 µM.
With `CCCCCCCC1CC/C=C/CC(C(=O)NC)C[C@@H](C(=O)N(C)OC)NC(=O)C(CC(C)C)NC(=O)O1` (single isomer, unassigned) [Compound B36] the IC50 was over 200 µM.
In the case of `CCCCCCCCC(=O)N[C@@H](CC(C)C)C(=O)NC1CCC(=O)N(C)C1(O)C(=O)NC(C)C` (stereo in doubt) [Compound A4, (3S)-2-hydroxy-N-isopropyl-1-methyl-3-((S)-4-methyl-2-nonanamidopentanamido)-6-oxopiperidine-2-carboxamide], the IC50 is reported as over 200 µM.
In the case of `CCS(=O)(=O)NCCN(C)C(=O)CC[C@H](NC(=O)[C@H](CC1CCCCC1)NC(=O)OCc1cccc(Cl)c1)C(=O)N(C)OC` (stereo in doubt) [Compound A29, 3-Chlorobenzyl ((S)-3-cyclohexyl-1-(((S)-5-((2-(ethylsulfonamido)ethyl)(methyl)amino)-1-(methoxy(methyl)amino)-1,5-dioxopentan-2-yl)amino)-1-oxopropan-2-yl)carbamate], the IC50 is reported as over 200 µM.
Compound `CON(C)C(=O)[C@H](CCC(=O)N(C)CCc1ccccc1)NC(=O)[C@H](CC1CCCCC1)NC(=O)OCc1cccc(Cl)c1` (stereo in doubt) [Compound A30, 3-chlorobenzyl ((S)-3-cyclohexyl-1-(((S)-1-(methoxy(methyl)amino)-5-(methyl(phenethyl)amino)-1,5-dioxopentan-2-yl)amino)-1-oxopropan-2-yl)carbamate] has an IC50 of over 200 µM.
For `CCOC(=O)NCCN(C)C(=O)CC[C@H](NC(=O)[C@H](CC1CCCCC1)NC(=O)OCc1cccc(Cl)c1)C(=O)N(C)OC` (stereo in doubt) [Compound A32, 3-Chlorobenzyl ((12S,15S)-16-cyclohexyl-12-(methoxy(methyl)carbamoyl)-8-methyl-4,9,14-trioxo-3-oxa-5,8,13-triazahexadecan-15-yl)carbamate], the IC50 was over 200 µM.
`CON(C)C(=O)[C@H](CCC(=O)N(C)CC(C)c1ccccc1)NC(=O)[C@H](CC1CCCCC1)NC(=O)OCc1cccc(Cl)c1` (stereo in doubt) [Compound A35, 3-chlorobenzyl ((2S)-3-cyclohexyl-1-(((2S)-1-(methoxy(methyl)amino)-5-(methyl(2-phenylpropyl)amino)-1,5-dioxopentan-2-yl)amino)-1-oxopropan-2-yl)carbamate] showed an IC50 of over 200 µM.
`CON(C)C(=O)[C@H](CC(C)C(=O)N(C)CCc1ccccc1)NC(=O)[C@H](CC1CCCCC1)NC(=O)OCc1cccc(Cl)c1` (stereo in doubt) [Compound A37, 3-Chlorobenzyl ((2S)-3-cyclohexyl-1-(((2S)-1-(methoxy (methyl)amino)-4-methyl-5-(methyl (phenethyl)amino)-1,5-dioxopentan-2-yl)amino)-1-oxopropan-2-yl) carbamate] showed an IC50 of over 200 µM.
`CON(C)C(=O)[C@H](CCC(=O)N(C)CCc1ccc(Cl)cc1)NC(=O)[C@H](CC1CCCCC1)NC(=O)OCc1cccc(Cl)c1` (stereo in doubt) [Compound A41, 3-Chlorobenzyl ((S)-1-(((S)-5-((4-chlorophenethyl)(methyl)amino)-1-(methoxy(methyl)amino)-1,5-dioxopentan-2-yl)amino)-3-cyclohexyl-1-oxopropan-2-yl)carbamate] was tested, and the IC50 was 30 µM.
Work on `CCN(CCc1ccccc1)C(=O)CC[C@H](NC(=O)[C@H](CC1CCCCC1)NC(=O)OCc1cccc(Cl)c1)C(=O)N(C)OC` (stereo in doubt) [Compound A42, 3-Chlorobenzyl ((S)-3-cyclohexyl-1-(((S)-5-(ethyl(phenethyl)amino)-1-(methoxy(methyl)amino)-1,5-dioxopentan-2-yl)amino)-1-oxopropan-2-yl)carbamate] yielded an IC50 of over 200 µM.
With `CCCCCCCC1CCCC/C=C/CC(C(=O)N(C)C)CC(C=O)NC(=O)[C@H](CC(C)C)NC1=O` (stereo in doubt) [Compound B7, (2S,5S,E)-5-formyl-15-heptyl-2-isobutyl-N,N-dimethyl-3,16-dioxo-1,4-diazacyclohexadec-9-ene-7-carboxamide] the IC50 was over 200 µM.
Work on `CCCCCCCC1CCCCCCCC(C(=O)N(C)C)CC(C(=O)N(C)OC)NC(=O)[C@H](CC(C)C)NC1=O` (stereo in doubt) [Compound B9, (2S,5S)-15-heptyl-2-isobutyl-N^5-methoxy-N^5,N^7,N^7-trimethyl-3,16-dioxo-1,4-diazacyclohexadecane-5,7-dicarboxamide] yielded an IC50 of over 200 µM.
`CCCCCCCC1CC/C=C\CC(C(=O)N(C)C)CC(C=O)NC(=O)[C@H](CC(C)C)NC1=O` (stereo in doubt) [Compound B10, (2S,5S,Z)-5-formyl-13-heptyl-2-isobutyl-N,N-dimethyl-3,14-dioxo-1,4-diazacyclotetradec-9-ene-7-carboxamide] gave an IC50 of 105 µM.
With `CCCCCCCC1CC/C=C\CC(C(=O)N(C)C)CC(C(=O)N(C)OC)NC(=O)[C@H](CC(C)C)NC1=O` (stereo in doubt) [Compound B11, (2S,5S,Z)-13-heptyl-2-isobutyl-N^5-methoxy-N^5,N^7,N^7-trimethyl-3,14-dioxo-1,4-diazacyclotetradec-9-ene-5,7-dicarboxamide] the IC50 was over 200 µM.
Work on `CCCCCCCC1CCC/C=C/CC(C(=O)N(C)C)CC(C(=O)N(C)OC)NC(=O)[C@H](CC(C)C)NC(=O)O1` (stereo in doubt) [Compound B13, (4S,7S,E)-16-Heptyl-4-isobutyl-N^7-methoxy-N^7,N^9,N^9-trimethyl-2,5-dioxo-1-oxa-3,6-diazacyclohexadec-11-ene-7,9-dicarboxamide] yielded an IC50 of over 200 µM.
Compound `CCCCCCC1CCC/C=C\CC(C(=O)N(C)C)CC(C(=O)N(C)OC)NC(=O)C(CC(C)C)NC(=O)C1` (stereo in doubt) [Compound B14, (2S,5S,Z)-14-hexyl-2-isobutyl-N5-methoxy-N^5,N^7,N^7-trimethyl-3,16-dioxo-1,4-diazacyclohexadec-9-ene-5,7-dicarboxamide] has an IC50 of over 200 µM.
`CCCCCCCC1CCCCCCCC(C(=O)N(C)C)CC(C=O)NC(=O)[C@H](CC(C)C)NC1=O` (stereo in doubt) [Compound B17, (2S,5S)-5-formyl-15-heptyl-2-isobutyl-N,N-dimethyl-3,16-dioxo-1,4-diazacyclohexadecane-7-carboxamide] showed an IC50 of over 200 µM.
`CCCCCCCC1CCCCCC(C(=O)N(C)C)CC(C=O)NC(=O)[C@H](CC(C)C)NC1=O` (stereo in doubt) [Compound B18, (2S,5S)-5-formyl-13-heptyl-2-isobutyl-N,N-dimethyl-3,14-dioxo-1,4-diazacyclotetradecane-7-carboxamide] was tested, and the IC50 was over 200 µM.
Work on `CCCCCCCC1CCCCCC(C(=O)N(C)C)CC(C(=O)N(C)OC)NC(=O)[C@H](CC(C)C)NC1=O` (stereo in doubt) [Compound B19, (2S,5S)-13-heptyl-2-isobutyl-N^5-methoxy-N^5,N^7,N^7-trimethyl-3,14-dioxo-1,4-diazacyclotetradecane-5,7-dicarboxamide] yielded an IC50 of over 200 µM.
